In patent publication US11667645B2, “Granzyme B directed imaging and therapy” (CytoSite Biopharma Inc., priority 2018, dated 2023):

molecular target: Granzyme B (human lymphocytes) (Homo sapiens (Human), UniProt P10144); test: human Granzyme B biochemical assay; settings: Granzyme B (human lymphocytes) 5 nM, substrate Ac-IETD-AFC 200 μM, Cpd incubation with enzyme 30 mins, 22° C., read time 60 mins; read-out: IC50
Source text: The compounds of Formula I-VIII described above can be tested using the human Granzyme B biochemical assay provided below.
Materials: • 1. Granzyme B (human lymphocytes) Enzyme: Enzo Lifesciences, Cat #ALX-200-602-0010 • 2. Substrate (Ac-IETD-AFC): Enzo Lifesciences, Cat #ALX-260-110-M010 • 3. Standard inhibitor (Compound 20-Isomer3): Synthesized internally in TCG • 4. Dimethyl sulfoxide (DMSO): Sigma-Aldrich, Cat #41639 • 5. HEPES: Gibco, Cat #15630-080 • 6. Calcium chloride: Sigma-Aldrich, Cat #C-5080 • 7. Distilled water: Gibco, Cat #15230-162 • 8. Bovine serum albumin (BSA): Sigma-Aldrich, Cat #A3059 • 9. Black, clear bottom PDL plate (384 wells): Greiner bio-one, Cat #781946 • 10. Polypropylene plate (384 wells): Corning, Cat #3657 Assay Buffer Composition:
Compound Preparation: • 1. DMSO is added to the respective compound vial to make 10 mM Compound stock solution, which is stored at −20° C. • 2. 10 mM Compound stock solution is thawed and 1 mM DMSO stock solution is prepared by adding 45 μl of DMSO to 5 μl of 10 mM compound stock solution. • 3. 1 mM DMSO stock solution is serially diluted (3.16 fold) by adding 10 μl of 1 mM DMSO stock to 21.6 μl of DMSO and mixed well. 10 μl of the resulting solution is then added to 21.6 μl of DMSO and mixed well. This process is continued to create 11 dilution points for the assay standard inhibitor and 8 dilution points for test compounds in 384 well polypropylene plate. • 4. 2 μl of each dilution are dispensed in assay ready plate. • 5. Each well is then diluted 25 fold by adding 48 μl of assay buffer to 2 μl of compound in assay ready plate to make Compound working stock. Enzyme Preparation: • 1. Supplied Granzyme B (human lymphocytes) enzyme is reconstituted to 1 mg/ml (about 31.25 μM) and 1 μl aliquots are kept in −80° C. • 2. 1 μl aliquot is diluted to 625 nM by adding 49 μl of assay buffer containing 0.1% BSA and gently mixed. • 3. 10 nM enzyme working stock is prepared by adding assay buffer containing 0.1% BSA. Substrate Preparation: • 1. Supplied substrate (Ac-IETD-AFC) is reconstituted by adding DMSO to make 10 mM stock, aliquoted and stored in −80° C. • 2. 4 mM substrate mid stock is prepared by adding DMSO. • 3. Substrate working stock i.e. 800 μM is prepared by adding assay buffer. Assay Protocol: • 1. 10 μl of serially diluted Compound working stock (start dose 40 μM) is added from assay ready plate to assay plate according to the plate map. • 2. Positive control (40 μM of standard inhibitor) and negative control (4% DMSO buffer) are added to the respective wells. • 3. 20 μl of Enzyme working stock is added to assay plate and gently mixed. • 4. The plate is incubated at 22° C. for 30 mins and spun at 130 g for 1 minute. • 5. After incubation, 10 μl of Substrate working stock is added to respective wells and mixed (Assay plate is maintained in dark after substrate addition). • 6. The plate is incubated at 22° C. for 60 mins and spun at 130 g for 1 minute. • 7. Fluorescence read (RFU) (Ex: 400 nm/Em: 505 nm) is taken after 60 mins in EnVision Multimode plate reader. Final Assay Concentration:
Data Analysis: • 1. The RFU read is analyzed to calculate percent inhibition by normalizing with positive and negative controls taken as 100% and 0% effect respectively in Microsoft excel. • 2. Graph is generated by putting the analyzed data in GraphPad prism 5.0 software to get IC50 value for each compound.

Chain of Granzyme B (human lymphocytes) (P10144 21-247): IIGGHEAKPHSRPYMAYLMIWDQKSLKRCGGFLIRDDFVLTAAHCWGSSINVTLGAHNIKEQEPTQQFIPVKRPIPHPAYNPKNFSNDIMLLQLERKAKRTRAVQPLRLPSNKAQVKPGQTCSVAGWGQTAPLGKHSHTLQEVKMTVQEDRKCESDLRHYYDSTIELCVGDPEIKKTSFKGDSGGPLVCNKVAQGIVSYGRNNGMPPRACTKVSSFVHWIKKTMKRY

IC50 [µM] | SMILES
1 to 5 | C[C@H](NC(=O)Cc1csc2ccccc12)C(=O)N[C@H]1CCc2cccc3c2N(C1=O)[C@H](C(=O)NCc1c[nH]nn1)C3 [Compound C002, (2S,5S)-5-[(S)-2-(2-Benzo[b]thiophen-3-yl-acetylamino)propionylamino]-4-oxo-1,2,4,5,6,7-hexahydro-azepino[3,2,1-hi]indole-2-carboxylic acid (1H-[1,2,3]triazol-4-ylmethyl)amide]
1 to 5 | CC(C)C[C@H](NC(=O)Cc1csc2ccccc12)C(=O)N[C@H]1CCc2cccc3c2N(C1=O)[C@H](C(=O)NCc1c[nH]nn1)C3 [Compound C005, (2S,5S)-5-[(S)-2-(2-Benzo[b]thiophen-3-yl-acetylamino)-4-methyl-pentanoylamino]-4-oxo-1,2,4,5,6,7-hexahydro-azepino[3,2,1-hi]indole-2-carboxylic acid (1H-[1,2,3]triazol-4-ylmethyl)-amide]
> 5 | O=C(Cc1csc2ccccc12)N[C@@H](CO)C(=O)N[C@H]1CCc2cccc3c2N(C1=O)[C@H](C(=O)NCc1c[nH]nn1)C3 [Compound C007, (2S,5S)-5-[(S)-2-(2-Benzo[b]thiophen-3-yl-acetylamino)-3-hydroxy-propionylamino]-4-oxo-1,2,4,5,6,7-hexahydro-azepino[3,2,1-hi]indole-2-carboxylic acid (1H-[1,2,3]triazol-4-ylmethyl)-amide]
> 5 | O=C(O)CC[C@H](NC(=O)Cc1csc2ccccc12)C(=O)N[C@H]1CCc2cccc3c2N(C1=O)[C@H](C(=O)NCc1c[nH]nn1)C3 [Compound C008, (S)-4-(2-Benzo[b]thiophen-3-yl-acetylamino)-4-{(2S,5S)-4-oxo-2-[(1H-[1,2,3]triazol-4-ylmethyl)-carbamoyl]-1,2,4,5,6,7-hexahydro-azepino[3,2,1-hi]indol-5-ylcarbamoyl}butyric acid]

The remaining lines, values behind:

SMILES | IC50 [µM]
CCC(C)[C@H](NC(=O)COCCF)C(=O)N[C@H]1CCc2cccc3c2N(C1=O)[C@H](C(=O)NCc1ccoc1)C3 (stereo in doubt) [Compound C108, (2S,5S)-5-{(2S,3R)-2-[2-(2-Fluoro-ethoxy)-acetylamino]-3-methyl-pentanoylamino}-4-oxo-1,2,4,5,6,7-hexahydro-azepino[3,2,1-hi]indole-2-carboxylic acid (furan-3-ylmethyl)-amide] | > 5
O=C(Cc1csc2ccccc12)NCC(=O)N[C@H]1CCc2cccc3c2N(C1=O)[C@H](C(=O)NCc1c[nH]nn1)C3 [Compound C001, (2S,5S)-5-[2-(2-Benzo[b]thiophen-3-yl-acetylamino)-acetylamino]-4-oxo-1,2,4,5,6,7-hexahydro-azepino[3,2,1-hi]indole-2-carboxylic acid (1H-[1,2,3]triazol-4-ylmethyl)-amide] | > 5
O=C(Cc1csc2ccccc12)N[C@@H](Cc1ccccc1)C(=O)N[C@H]1CCc2cccc3c2N(C1=O)[C@H](C(=O)NCc1c[nH]nn1)C3 [Compound C004, (2S,5S)-5-[(S)-2-(2-Benzo[b]thiophen-3-yl-acetylamino)-3-phenyl-propionylamino]-4-oxo-1,2,4,5,6,7-hexahydro-azepino[3,2,1-hi]indole-2-carboxylic acid (1H-[1,2,3]triazol-4-ylmethyl)-amide] | > 5
O=C(Cc1csc2ccccc12)N[C@H](C(=O)N[C@H]1CCc2cccc3c2N(C1=O)[C@H](C(=O)NCc1c[nH]nn1)C3)c1ccccc1 [Compound C009, (2S,5S)-5-[(S)-2-(2-Benzo[b]thiophen-3-yl-acetylamino)-2-phenyl-acetylamino]-4-oxo-1,2,4,5,6,7-hexahydro-azepino[3,2,1-hi]indole-2-carboxylic acid (1H-[1,2,3]triazol-4-ylmethyl)-amide] | > 5
O=C(Cc1csc2ccccc12)N[C@@H](Cc1ccc(O)cc1)C(=O)N[C@H]1CCc2cccc3c2N(C1=O)[C@H](C(=O)NCc1c[nH]nn1)C3 [Compound C010, (2S,5S)-5-[(S)-2-(2-Benzo[b]thiophen-3-yl-acetylamino)-3-(4-hydroxy-phenyl)-propionylamino]-4-oxo-1,2,4,5,6,7-hexahydro-azepino[3,2,1-hi]indole-2-carboxylic acid (1H-[1,2,3]triazol-4-ylmethyl)-amide] | > 5
